Reference: BindingDB's records for doi:10.1021/jm970519e (Smithkline Beecham Pharmaceuticals, 1998)

Legend:
[1] = target: 5-hydroxytryptamine receptor 2A (Homo sapiens, UniProt P28223)
[2] = target: 5-hydroxytryptamine receptor 6 (Homo sapiens, UniProt P50406)
[3] = target: 5-hydroxytryptamine receptor 1E (Homo sapiens, UniProt P28566)
[4] = target: T1, Alpha-1B adrenergic receptor (Homo sapiens, UniProt P35368)
T1 sequence (P35368 whole entry): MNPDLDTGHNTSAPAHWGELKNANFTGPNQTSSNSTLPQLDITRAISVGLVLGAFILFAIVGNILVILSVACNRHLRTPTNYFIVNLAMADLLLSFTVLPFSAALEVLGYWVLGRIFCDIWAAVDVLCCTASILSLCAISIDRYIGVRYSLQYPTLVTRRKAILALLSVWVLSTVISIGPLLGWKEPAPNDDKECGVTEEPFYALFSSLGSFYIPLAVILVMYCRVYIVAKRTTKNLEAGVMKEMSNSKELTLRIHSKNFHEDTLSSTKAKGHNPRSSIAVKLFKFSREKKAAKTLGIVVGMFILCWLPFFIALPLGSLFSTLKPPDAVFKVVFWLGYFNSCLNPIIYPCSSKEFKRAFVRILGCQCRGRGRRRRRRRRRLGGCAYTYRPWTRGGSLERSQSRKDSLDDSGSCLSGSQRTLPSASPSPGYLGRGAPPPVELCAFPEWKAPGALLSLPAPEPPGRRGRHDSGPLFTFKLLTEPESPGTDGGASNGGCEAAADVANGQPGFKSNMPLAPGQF

[5] = target: T2, 5-hydroxytryptamine receptor 2C (Homo sapiens, UniProt P28335)
T2 sequence (P28335 whole entry): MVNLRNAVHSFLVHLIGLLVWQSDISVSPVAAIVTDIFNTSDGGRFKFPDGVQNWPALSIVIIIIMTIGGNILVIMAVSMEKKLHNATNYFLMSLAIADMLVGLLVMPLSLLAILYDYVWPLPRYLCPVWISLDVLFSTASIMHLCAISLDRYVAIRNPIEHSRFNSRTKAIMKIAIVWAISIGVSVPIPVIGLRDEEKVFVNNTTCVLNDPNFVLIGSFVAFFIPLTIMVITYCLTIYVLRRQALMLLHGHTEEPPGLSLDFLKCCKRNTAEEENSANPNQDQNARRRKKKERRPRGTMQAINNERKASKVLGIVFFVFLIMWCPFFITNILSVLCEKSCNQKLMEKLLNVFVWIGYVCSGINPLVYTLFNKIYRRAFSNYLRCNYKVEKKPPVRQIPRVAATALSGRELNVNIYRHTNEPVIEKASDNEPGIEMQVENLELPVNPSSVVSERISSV

Measured: Ki

Sequence of 5-hydroxytryptamine receptor 2A (P28223 whole entry): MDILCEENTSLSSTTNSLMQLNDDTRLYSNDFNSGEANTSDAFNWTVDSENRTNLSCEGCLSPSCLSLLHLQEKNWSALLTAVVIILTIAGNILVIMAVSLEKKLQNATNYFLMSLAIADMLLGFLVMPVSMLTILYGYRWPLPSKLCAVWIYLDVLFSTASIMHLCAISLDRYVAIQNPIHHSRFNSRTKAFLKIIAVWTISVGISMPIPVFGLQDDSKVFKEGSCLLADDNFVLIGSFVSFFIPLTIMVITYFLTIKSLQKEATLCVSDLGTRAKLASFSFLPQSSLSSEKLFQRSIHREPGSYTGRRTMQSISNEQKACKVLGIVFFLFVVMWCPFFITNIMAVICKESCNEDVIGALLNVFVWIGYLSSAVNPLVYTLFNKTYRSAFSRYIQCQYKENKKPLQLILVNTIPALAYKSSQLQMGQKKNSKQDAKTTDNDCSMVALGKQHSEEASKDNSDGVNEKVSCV
Sequence of 5-hydroxytryptamine receptor 6 (P50406 whole entry): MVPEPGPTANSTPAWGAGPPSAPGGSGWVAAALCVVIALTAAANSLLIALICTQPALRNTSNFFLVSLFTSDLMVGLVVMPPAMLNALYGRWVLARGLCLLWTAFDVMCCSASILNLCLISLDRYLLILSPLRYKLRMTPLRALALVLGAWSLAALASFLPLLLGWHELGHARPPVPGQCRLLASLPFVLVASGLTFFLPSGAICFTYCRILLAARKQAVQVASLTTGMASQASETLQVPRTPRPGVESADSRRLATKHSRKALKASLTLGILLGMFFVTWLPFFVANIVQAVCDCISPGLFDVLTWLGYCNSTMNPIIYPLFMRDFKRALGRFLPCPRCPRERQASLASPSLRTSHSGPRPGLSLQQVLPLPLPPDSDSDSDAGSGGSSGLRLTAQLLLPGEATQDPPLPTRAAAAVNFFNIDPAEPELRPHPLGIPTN
Sequence of 5-hydroxytryptamine receptor 1E (P28566 whole entry): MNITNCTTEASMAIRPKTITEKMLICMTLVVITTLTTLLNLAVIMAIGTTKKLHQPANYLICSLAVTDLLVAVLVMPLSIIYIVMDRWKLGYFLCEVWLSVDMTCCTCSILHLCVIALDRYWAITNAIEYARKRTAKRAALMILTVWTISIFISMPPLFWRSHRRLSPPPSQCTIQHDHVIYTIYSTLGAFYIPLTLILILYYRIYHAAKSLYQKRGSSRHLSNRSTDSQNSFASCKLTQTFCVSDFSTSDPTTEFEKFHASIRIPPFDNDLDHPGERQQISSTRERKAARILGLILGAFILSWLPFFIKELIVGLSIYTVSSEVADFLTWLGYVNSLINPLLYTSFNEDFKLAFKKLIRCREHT

Cc1cccc(S(=O)(=O)N(C)[C@H](C)CCN2CCC(C)CC2)c1 [SB-258719]
> 10 µM: all assays above
